A word on the IC50: it is the concentration that inhibits the measured activity by half.

Where “and” joins values, the source holds several entries; their conditions need not be identical. Identical values can stand only once. Numbered stars: 1 amine (or outer) side, 2 acyl side, 3 side chain; on linkers, the order of the positions; unused ones are H or OH. Bridge positions count the residues as written; N and C are the ends. Square brackets hold non-standard residues; d marks the D form. Peptide text beside a SMILES is read from it. I, II: the chains in the order shown. CO(CH2CH2O)5CH2CH2CO = O=C(CCOCCOCCOCCOCCOCCC(=O)[*:2])[*:1]; X8 = O=C(/C=N/O/C=C/CCCCOc1cc(C[*:2])cc(C[*:3])c1)[*:1]; X3 = O=C(/C=N/OCCCCCCOc1cc(C[*:2])cc(C[*:3])c1)[*:1]; X1 = O=C(C=NOCCCCCCOc1cc(C[*:2])cc(C[*:3])c1)[*:1]; X6 = CC[C@@H](C)C(N[*:1])C(=O)[*:2]; Nle = CCCC[C@H](N)C(=O)O

For the first test, the target named is T1, rh-integrin α4β7/LPAM-1 (Homo sapiens, UniProt P13612+P26010).
T1 sequence (P13612 34-977 limits assumed): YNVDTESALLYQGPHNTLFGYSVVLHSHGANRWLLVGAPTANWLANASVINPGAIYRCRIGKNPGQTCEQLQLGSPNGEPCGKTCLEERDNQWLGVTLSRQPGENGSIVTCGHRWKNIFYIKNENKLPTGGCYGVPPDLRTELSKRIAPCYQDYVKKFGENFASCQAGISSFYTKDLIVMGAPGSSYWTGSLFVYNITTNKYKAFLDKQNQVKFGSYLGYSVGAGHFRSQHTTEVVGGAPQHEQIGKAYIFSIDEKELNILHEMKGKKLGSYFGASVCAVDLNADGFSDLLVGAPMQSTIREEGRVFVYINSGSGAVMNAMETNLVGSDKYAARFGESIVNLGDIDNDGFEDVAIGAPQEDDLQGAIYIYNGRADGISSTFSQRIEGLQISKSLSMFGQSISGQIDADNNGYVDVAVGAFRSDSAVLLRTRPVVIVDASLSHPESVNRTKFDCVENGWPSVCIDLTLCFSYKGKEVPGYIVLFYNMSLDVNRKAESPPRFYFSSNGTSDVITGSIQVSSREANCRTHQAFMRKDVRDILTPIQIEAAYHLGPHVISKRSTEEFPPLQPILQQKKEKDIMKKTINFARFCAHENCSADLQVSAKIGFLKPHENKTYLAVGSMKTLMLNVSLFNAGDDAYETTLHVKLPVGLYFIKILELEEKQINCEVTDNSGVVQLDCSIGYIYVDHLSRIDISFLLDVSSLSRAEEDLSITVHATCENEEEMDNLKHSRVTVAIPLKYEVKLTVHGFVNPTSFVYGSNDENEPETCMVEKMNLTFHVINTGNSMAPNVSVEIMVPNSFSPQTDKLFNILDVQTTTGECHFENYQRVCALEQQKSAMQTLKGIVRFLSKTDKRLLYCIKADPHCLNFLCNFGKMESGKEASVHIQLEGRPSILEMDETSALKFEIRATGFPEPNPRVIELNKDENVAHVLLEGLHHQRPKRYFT
T1 sequence (P26010 20-723 limits assumed): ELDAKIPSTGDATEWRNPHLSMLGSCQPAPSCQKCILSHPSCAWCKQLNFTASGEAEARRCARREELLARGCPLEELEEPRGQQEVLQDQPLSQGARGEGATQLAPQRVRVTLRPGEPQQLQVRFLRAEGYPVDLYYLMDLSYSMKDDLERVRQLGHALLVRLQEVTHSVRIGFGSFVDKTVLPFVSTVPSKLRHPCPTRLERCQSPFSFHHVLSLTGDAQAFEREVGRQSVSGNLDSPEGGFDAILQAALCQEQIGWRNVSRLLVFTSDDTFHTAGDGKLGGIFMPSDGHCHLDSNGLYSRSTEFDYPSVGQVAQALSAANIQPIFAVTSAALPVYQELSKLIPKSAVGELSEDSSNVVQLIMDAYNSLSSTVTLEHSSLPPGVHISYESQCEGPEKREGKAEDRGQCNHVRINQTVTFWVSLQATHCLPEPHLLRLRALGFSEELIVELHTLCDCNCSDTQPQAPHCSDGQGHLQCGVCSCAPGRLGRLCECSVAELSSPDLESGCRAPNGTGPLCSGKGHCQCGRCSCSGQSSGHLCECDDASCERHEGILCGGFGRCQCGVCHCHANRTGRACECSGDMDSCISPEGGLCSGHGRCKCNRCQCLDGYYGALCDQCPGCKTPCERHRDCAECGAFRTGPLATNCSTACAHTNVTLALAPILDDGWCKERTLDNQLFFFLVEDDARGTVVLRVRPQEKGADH
The experiment in a line: α4β7-MadCAM Competition ELISA (Example 4). Format: binding. Particulars: Table 3 Representative compounds; inhibition of MAdCAM binding to coated α4β7; read-out: IC50. As to the method: After washing with wash buffer, 200 μL assay buffer was added to each well and incubated for one hour at 28° C. After another wash with wash buffer, 100 μL of a MAdCAM and peptide mixture in assay buffer was added to each well and incubated for one hour at 28° C., followed by washing with wash buffer.
(In general: ELISA stands for enzyme-linked immunosorbent assay.)
For `CSCC[C@@H]1NC(=O)[C@@H]2CCCN2C(=O)[C@@H]2CSCc3cc(cc(c3)OCCCCCCO/N=C/C(=O)N[C@@H](CCCNC(=N)N)C(=O)N2)CSC[C@@H](C(N)=O)NC(=O)[C@H](CCC(=O)O)NC(=O)CNC(=O)[C@H](C)NC(=O)[C@H](C(C)C)NC(=O)[C@H](CC(=O)O)NC1=O` [compound 23, TSL6- SRCPMDVAGEC] (RCPMDVAGEC-NH2; linker N-2-10 via X3), the IC50 came out at 511 nM. Consider `CC(C)C[C@@H]1NC(=O)[C@@H]2CCCN2C(=O)[C@@H]2CSCc3cc(cc(c3)OCCCCCCO/N=C/C(=O)N[C@@H](CCCCN)C(=O)N2)CSC[C@@H](C(N)=O)NC(=O)[C@H](CCC(=O)O)NC(=O)[C@H](Cc2ccc(O)cc2)NC(=O)[C@@H]2CCCN2C(=O)[C@H]([C@@H](C)O)NC(=O)[C@H](CC(=O)O)NC1=O` [compound 22, TSL6- SKCPLDTPYEC] (KCPLDTPYEC-NH2; linker N-2-10 via X3), for which the IC50 is 495 nM and 940 nM. As for `CC(C)C[C@@H]1NC(=O)CNC(=O)[C@H](Cc2ccc(O)cc2)NC(=O)[C@H](CC(=O)O)NC(=O)[C@H](CO)NC(=O)[C@@H]2CSCc3cc(cc(c3)OCCCCCCO/N=C/C(=O)N[C@@H](C)C(=O)N2)CSC[C@@H](C(N)=O)NC(=O)[C@H](CCC(N)=O)NC1=O` [compound 86, TSL6- SACSDTGLQC] (ACSDYGLQC-NH2; linker N-2-9 via X3), the 50% inhibitory concentration (IC50) was 70700 nM.

As for `CC[C@H](C)[C@@H]1NC(=O)[C@H]([C@@H](C)O)NC(=O)[C@H](CC(=O)O)NC(=O)[C@H](CO)NC(=O)[C@H](CCCNC(=N)N)NC(=O)[C@@H]2CSCc3cc(cc(c3)OCCCCCCO/N=C/C(=O)N[C@@H](C)C(=O)N2)CSC[C@@H](C(N)=O)NC1=O` [compound 90, TSL6- SACRSDTLC] (ACRSDTIC-NH2; linker N-2-8 via X3), the IC50 is 79800 nM. Turning to `CSCC[C@@H]1NC(=O)[C@H](CC(=O)O)NC(=O)[C@H](CC(C)C)NC(=O)[C@@H]2CCCN2C(=O)[C@@H]2CSCc3cc(cc(c3)OCCCCCCO/N=C/C(=O)N[C@@H](CCCCN)C(=O)N2)CSC[C@@H](C(N)=O)NC(=O)[C@H](CCC(=O)O)NC(=O)[C@H](Cc2ccc(O)cc2)NC(=O)[C@@H]2CCCN2C1=O` [compound 29, TSL6- SKCPLDMPYEC] (KCPLDMPYEC-NH2; linker N-2-10 via X3), the IC50 is 672 nM. For the molecule `CC[C@@H](C)C1NC(=O)[C@H](Cc2ccc(O)cc2)NC(=O)[C@H](CCCNC(=N)N)NC(=O)[C@H](CCC(=O)O)NC(=O)[C@H](C)NC(=O)[C@H](CC(=O)O)NC(=O)[C@@H]2CCCN2C(=O)[C@@H]2CSCc3cc(cc(c3)OCCCCCCO/N=C/C(=O)N[C@@H](CO)C(=O)N2)CSC[C@@H](C(N)=O)NC1=O` (stereo partly drawn) [compound 44, TSL6- SDCPDAERYIC] (SCPDAERY[X6]C-NH2; linker N-2-10 via X3), the IC50 worked out at 1460 nM. As to `CC[C@H](C)[C@@H]1NC(=O)[C@H](CC(=O)O)NC(=O)[C@H](CCSC)NC(=O)[C@@H]2CCCN2C(=O)[C@@H](NC(=O)[C@H](CCCNC(=N)N)NC(=O)[C@H](CO)NC(C)=O)CSSC[C@@H](C(=O)N[C@@H](CCCCNC(=O)CCOCCOCCOCCOCCOCCC(=O)NCCCC[C@H](NC(=O)[C@@H]2CSSC[C@H](NC(=O)[C@H](CCCNC(=N)N)NC(=O)[C@H](CO)NC(C)=O)C(=O)N3CCC[C@H]3C(=O)N[C@@H](CCSC)C(=O)N[C@@H](CC(=O)O)C(=O)N[C@@H]([C@@H](C)CC)C(=O)N[C@@H](C)C(=O)NCC(=O)N[C@@H](CCC(=O)O)C(=O)N2)C(N)=O)C(N)=O)NC(=O)[C@H](CCC(=O)O)NC(=O)CNC(=O)[C@H](C)NC1=O` [compound 49] (I: Ac-SRCPMDIAGECK-NH2 / II: Ac-SRCPMDIAGECK-NH2; disulfide I:3-I:11, II:3-II:11; linker I:12-II:12 via CO(CH2CH2O)5CH2CH2CO), the half-inhibitory concentration (IC50) stood at 1730 nM. As for `CCCC[C@@H]1NC(=O)[C@@H]2CCCN2C(=O)[C@@H]2CSCc3cc(cc(c3)OCCCCCCO/N=C/C(=O)N[C@@H](CCCNC(=N)N)C(=O)N2)CSC[C@@H](C(N)=O)NC(=O)[C@H](CCC(=O)O)NC(=O)[C@H](CCC(N)=O)NC(=O)[C@H](Cc2c[nH]c3ccccc23)NC(=O)[C@H](C(C)C)NC(=O)[C@H](CC(=O)O)NC1=O` [compound 3] (RCP[Nle]DVWQEC-NH2; linker N-2-10 via X3), the IC50 was 53 nM. `CC(=O)N[C@H]1CSSC[C@@H](C(=O)NCC(=O)N[C@@H](CCC(=O)O)C(N)=O)NC(=O)[C@H](CC(C)C)NC(=O)[C@H]([C@@H](C)O)NC(=O)[C@H](CC(=O)O)NC(=O)[C@H](CO)NC(=O)[C@H](CCCNC(=N)N)NC1=O` [compound 7] (Ac-CRSDTLCGE-NH2; disulfide 1-7): the IC50 was found to be 136 nM. Take `CC(C)C[C@@H]1NC(=O)[C@@H]2CCCN2C(=O)[C@@H]2CSCc3cc(cc(c3)OCCCCCCO/N=C/C(=O)N[C@@H](CCCCN)C(=O)N2)CSC[C@@H](C(N)=O)NC(=O)[C@H](CCC(=O)O)NC(=O)[C@H](Cc2ccc(O)cc2)NC(=O)[C@@H]2CCCN2C(=O)[C@H](C(C)C)NC(=O)[C@H](CC(=O)O)NC1=O` [compound 10] (KCPLDVPYEC-NH2; linker N-2-10 via X3): the IC50 turned out to be 188 nM. Regarding `CC[C@H](C)[C@@H]1NC(=O)[C@H](CC(=O)O)NC(=O)[C@H](CCSC)NC(=O)[C@@H]2CCCN2C(=O)[C@@H]2CSCc3cc(cc(c3)OCCCCCCO/N=C/C(=O)N[C@@H](CCCNC(=N)N)C(=O)N2)CSC[C@@H](C(N)=O)NC(=O)[C@H](CCC(=O)O)NC(=O)[C@H](CCC(N)=O)NC(=O)[C@H](Cc2c[nH]c3ccccc23)NC1=O` [compound 16] (RCPMDIWQEC-NH2; linker N-2-10 via X3), the half-inhibitory concentration (IC50) was 272 nM. Turning to `CC(C)C[C@@H]1NC(=O)[C@@H]2CCCN2C(=O)[C@@H]2CSCc3cc(cc(c3)OCCCCCCO/N=C/C(=O)N[C@@H](C)C(=O)N2)CSC[C@@H](C(N)=O)NC(=O)[C@H](CCC(=O)O)NC(=O)[C@H](Cc2ccc(O)cc2)NC(=O)[C@@H]2CCCN2C(=O)C([C@@H](C)O)NC(=O)[C@H](CC(=O)O)NC1=O` (stereo in doubt) [compound 43, TSL6- SACPLDTPYEC], the half-maximal inhibitory concentration (IC50) is 1450 nM.

Turning to `C[C@@H](O)[C@@H]1NC(=O)[C@H](CC(=O)O)NC(=O)[C@@H]2CCCN2C(=O)[C@H](Cc2ccc(O)cc2)NC(=O)[C@@H]2CSCc3cc(cc(c3)OCCCC/C=C/O/N=C/C(=O)N[C@@H](CC(N)=O)C(=O)N2)CSC[C@@H](C(N)=O)NC(=O)[C@H](Cc2cnc[nH]2)NC(=O)[C@H](Cc2ccc(O)cc2)NC1=O` [compound 89, TSL6- SNCYPDTYHC] (NCYPDTYHC-NH2; linker N-2-9 via X8), the IC50 was found to be 79300 nM.

Still in this test, the particulars now being: competition ELISA, 4 μg/mL α4β7 coated, MAdCAM and peptide mixture, 28° C.; read-out: IC50.
With `CC(C)C[C@@H]1NC(=O)[C@@H]2CCCN2C(=O)[C@@H]2CSCc3cc(cc(c3)OCCCCCCON=CC(=O)N[C@@H](CCCCN)C(=O)N2)CSC[C@@H](C(=O)O)NC(=O)[C@H](CCC(=O)O)NC(=O)[C@H]([C@@H](C)O)NC(=O)[C@@H]2CCCN2C(=O)[C@H]([C@@H](C)O)NC(=O)[C@H](CC(=O)O)NC1=O` [SEQ ID NO: 121] (KCPLDTPTEC-OH; linker N-2-10 via X1), the half-maximal inhibitory concentration (IC50) is 748 nM. The same measure, in the same setting: the value for `CC[C@H](C)[C@@H]1NC(=O)[C@H](CC(=O)O)NC(=O)[C@H](CCSC)NC(=O)[C@@H]2CCCN2C(=O)[C@@H](NC(=O)[C@H](CCC(N)=O)NC(=O)[C@H](CO)NC(C)=O)CSSC[C@@H](C(=O)O)NC(=O)[C@H]([C@@H](C)O)NC(=O)[C@@H]2CCCN2C1=O` [SEQ ID NO: 111] (Ac-SQCPMDIPTC-OH; disulfide 3-10) was 1700 nM.

These data come from US20230145835A1, “Modulators of Alpha-4-beta-7 Integrin and MAdCAM” (48HD Biopharma Inc., priority 2021, published 2023).
